Results from patent publication US8084459B2, “Substituted quinazolinones for treating neurological conditions” (Prana Biotechnology Ltd, priority 2004, dated 2011).

Tested on: Aβ1-42 toxicity in neuronal cortical cells
Assay: Assay 3(c) Aβ neurotoxicity and neuroprotection (MTS)
Type: cell-based, mouse
Details: 20 uM Aβ1-42, cortical neurons, 4 days
Method: Primary Cortical Neuronal Cultures
Cortical cultures were prepared as previously described (White et al., 1998). Embryonic day 14 BL6Jx129sv mouse cortices were removed, dissected free of meninges and dissociated in 0.025% (wt/vol) trypsin. Dissociated cells were plated in 48 well culture plates at a density of 2×10^6 cells/mL in MEM with 25% (vol/vol) FCS and 5% (vol/vol) HS and incubated at 37° C., 2 hrs. Media was then replaced with Neurobasal media (Invitrogen Life Technologies) and B27 supplements (Invitrogen Life Technologies). Cultures were maintained at 37° C. in 5% CO2. Prior to experimentation, the culture medium was replaced with Neurobasal media and B27 minus antioxidants (Invitrogen Life Technologies).
(c) Assay for Aβ Neurotoxicity and Aβ Neuroprotection
Neuronal cortical cells were cultured for five days as per Assay 2. On day six the neurobasal (NB) media (Invitrogen Life Technologies) and B27 supplement (Invitrogen Life Technologies) were replaced with NB media and B27 supplement (no antioxidants). On day six, test compounds were individually added to the neuronal cell cultures:
(§1) The test compounds were dissolved in 100% DMSO to a concentration of 2.5 mM (10 mM if excess compound was weighed out per vial—then diluted to 2.5 mM). 2.5 mM stock solution was serially diluted 1 in 10 to give working solutions of 250 uM, 25 uM, 2.5 uM.
Aβ was initially dissolved in 20 mM NaOH to a concentration of 1 mM and sonicated for 5 minutes. The peptide was then diluted in H2O and 10×PBS to a final concentration of 200 uM Aβ in 1× PBS. The peptide was again sonicated for 5 minutes and then spun at 14000 rpm for 5 min and transferred to a fresh tube.
as §1, with “in 10 [in NB media and B27 (no antioxidants)] to give” for “in 10 to give”, “2.5 uM. Test compounds were not added directly to cells, instead they were added to a 48 well ‘Drug Plate’ as comprised below:” for “2.5 uM.”
Preparation of “Drug Plate”:
Well 1: 515 ul NB+B27 (no antioxidant)*+24 ul 25 uM test compound+60 ul Aβ diluent**
Well 2: 515 ul NB+B27 (no antioxidant)+24 ul 250 uM test compound+60 ul Aβ diluent
Well 3: 515 ul NB+B27 (no antioxidant)+24 ul test compound diluent***+60 ul Aβ1-42
Well 4: 515 ul NB+B27 (no antioxidant)+24 ul 2.5 uM test compound+60 ul Aβ1-42
Well 5: 515 ul NB+B27 (no antioxidant)+24 ul 25 uM test compound+60 ul Aβ1-42
Well 6: 515 ul NB+B27 (no antioxidant)+24 ul 250 uM test compound+60 ul Aβ1-42 diluent
Well 7: 515 ul NB+B27 (no antioxidant)+24 ul test compound diluent+60 ul Aβ1-42 diluent
Well 8: 600 ul NB+B27 (no antioxidant)
The Drug Plate was incubated at 37° C. for 15 mins. 200 ul of each well was added in triplicate to the corresponding cell plate. The cell plate was incubated at 37 C, for 4 days.
* NB media+B27 (no antioxidants)
** Aβ diluent 2 mM NaOH, 1×PBS
*** PBT diluent 10% DMSO in NB+B27 (no antioxidant)
On the 4th day after treating the cells the assay is completed by adding MTS to the cells.

## Cc1nc(Cn2cnc3c(O)c(Cl)cc(Cl)c3c2=O)cs1 [Compound 1084]
  Assay 3(c) Neuroprotection (% inhibition of Abeta toxicity): 2%

## Cc1noc(C)c1Cn1cnc2c(O)c(Cl)cc(Cl)c2c1=O [Compound 1085]
  Assay 3(c) Neuroprotection (% inhibition of Abeta toxicity): 7%
